The values below are quoted from earlier work in patent US5208032A, “Increasing the growth of turkeys using implant of 19-nortestosterone” (Rutgers, The State University of New Jersey, priority 1992, dated 1993).

Data set [1] has as its system 5-alpha-DHT anti-serum. The note with it: antibody provided by Dr. Alan L. Johnson; cited from earlier work.
The subject of data set [2] is testosterone antiserum. As to conditions: manufacturer statement; cited from earlier work.
The conditions of data set [3]: mice, Innovative Research pellets, 21 days; cited from earlier work.

With `C[C@]12CCC(=O)C=C1CC[C@@H]1[C@@H]2CC[C@]2(C)C(=O)CC[C@@H]12` [4-adrosten-3,17-dione], the “reaction with 5-alpha-DHT anti-serum (Ford's-F/1)” value in data set [1] was 11.4%. Moreover, the “cross-reaction with Immuchem testosterone antiserum” value in data set [2] is listed as 0.56%. For `C[C@]12CC[C@@H](O)C[C@@H]1CC[C@@H]1[C@@H]2CC[C@]2(C)[C@@H](O)CC[C@@H]12` [5-alpha-androstane-3-alpha,17-beta-diol], the “cross-reaction with Immuchem testosterone antiserum” value in data set [2] is given as “less than 0.01%”. In the case of `C[C@]12CC[C@@H]3c4ccc(O)cc4CC[C@H]3[C@@H]1CC[C@@H]2O` [17 beta-estradiol], the maintained blood levels in data set [3] was 20 to 30 ng/mL.
